{
  "source": "paper PMC8227856",
  "about": "“Antibacterial Activity of a Promising Antibacterial Agent: 22-(4-(2-(4-Nitrophenyl-piperazin-1-yl)-acetyl)-piperazin-1-yl)-22-deoxypleuromutilin” (Molecules, 2021)",
  "key": {"[1]": {"system": "MRSA ATCC 43300", "assay": "MBC assay", "assay_type": "cell-based, Staphylococcus aureus", "conditions": "Staphylococcus aureus; MRSA ATCC 43300", "protocol": "(§1) Determination of MBCs refers to the minimum concentrations of antibacterial agents required to kill 99.9% of the test microorganisms after 24 h of incubation. After obtaining the MICs value, the 96-well plates were placed at 37 °C and incubated for 24 h. One hundred microliter aliquots of the bacterial suspensions were taken from the wells without visible bacterial growth and then plated onto MHA plates. […] The MBC assay was conducted at least in triplicate."}, "[2]": {"system": "S. aureus 144 (clinical strain)", "assay": "MBC assay", "assay_type": "cell-based", "conditions": "Staphylococcus aureus", "protocol": "as §1"}, "[3]": {"system": "S. aureus ATCC 29213", "assay": "MBC assay", "assay_type": "cell-based", "conditions": "Staphylococcus aureus, ATCC29213", "protocol": "as §1"}, "[4]": {"system": "S. aureus AD3 (clinical strain)", "assay": "MBC assay", "assay_type": "cell-based", "conditions": "Staphylococcus aureus", "protocol": "as §1"}, "[5]": {"system": "MRSA ATCC 43300", "assay": "Time-kill assay", "assay_type": "cell-based, Staphylococcus aureus", "protocol": "(§2) The MRSA and S. aureus in the logarithmic phase were diluted to 10^6 CFU/mL with MHB. Then diverse concentrations of NPDM or tiamulin were added to the bacteria solution reaching the final concentration of 1 × MIC, 2 × MIC, 4 × MIC, and 8 × MIC, respectively. All bacterial inoculums were cultured at 37 °C with shaking. A total of 100 μL samples were taken from the subcultures at 0, 3, 6, 9, and 24 h, respectively, and continuously diluted 10-fold in sterile saline; then, 25 μL diluent was plated on the MHA plate. All plates were placed at 37 °C for 24 h. The total number of colonies on the plate was counted, and the results were expressed as log (CFU/mL)."}, "[6]": {"system": "S. aureus ATCC 29213", "assay": "Time-kill assay", "assay_type": "cell-based, Staphylococcus aureus", "protocol": "as §2"}, "[7]": {"system": "MRSA ATCC 43300", "assay": "MIC, broth dilution micro-method", "assay_type": "cell-based", "conditions": "Staphylococcus aureus, 24 h, MHB", "protocol": "(§3) The MICs of NPDM against MRSA were determined by the broth dilution micro-method. Briefly, the stock solution of NPDM and the reference drug tiamulin were diluted by a two-fold serial dilution method with MHB in a 96-well plate to provide concentration ranges of 16~0.032 μg/mL. Then 100 μL of bacterial suspensions in log phase were diluted to 10^6 CFU/mL with MHB and were added to each well to make the final concentrations of the test compounds ranging from 8 to 0.016 μg/mL. The bacterial suspension (no drugs but solvent) was used as the positive control and MHB (no cultures) was used as the negative control. […] The MICs assay was carried out in triplicate."}, "[8]": {"system": "S. aureus 144 (clinical strain)", "assay": "MIC, broth dilution micro-method", "assay_type": "cell-based", "conditions": "Staphylococcus aureus, 24 h, MHB", "protocol": "as §3"}, "[9]": {"system": "S. aureus ATCC 29213", "assay": "MIC, broth dilution micro-method", "assay_type": "cell-based", "conditions": "Staphylococcus aureus, ATCC29213, 24 h, MHB", "protocol": "as §3"}, "[10]": {"system": "S. aureus AD3 (clinical strain)", "assay": "MIC, broth dilution micro-method", "assay_type": "cell-based", "conditions": "Staphylococcus aureus, 24 h, MHB", "protocol": "as §3"}, "[11]": {"system": "MRSA ATCC 43300", "assay": "Neutropenic mouse thigh infection model", "assay_type": "in vivo, Staphylococcus aureus", "conditions": "20 mg/kg i.v., neutropenic mice", "protocol": "(§4) The mouse thigh infection model was performed as described in the literature with minor modifications. Briefly, female mice had induced neutropenia (neutrophil count ≤ 100/mm^3) by administered intraperitoneally cyclophosphamide on day 4 (150 mg/kg) and day 1 (100 mg/kg) before the experiment. A bacterial suspension of 0.1 mL (MRSA or S. aureus) containing approximately 10^7 CFU/mL microorganism was injected into the posterior thigh of mice to establish infection. Two hours after infection, mice were intravenously injected with NPDM or tiamulin at 20 mg/kg. After 24 h, thighs (six per group) were collected upon euthanasia. Then, thighs were weighed and homogenized with sterile saline. Tissue homogenate was continuously diluted 10-fold and plated on MHA plates for colony counts. SPSS 19 software was used for statistical analysis and t-tests."}, "[12]": {"system": "S. aureus ATCC 29213", "assay": "Neutropenic mouse thigh infection model", "assay_type": "in vivo, Staphylococcus aureus", "conditions": "20 mg/kg i.v., neutropenic mice", "protocol": "as §4"}, "[13]": {"system": "MRSA ATCC 43300", "assay": "Galleria mellonella infection model", "assay_type": "in vivo", "conditions": "Staphylococcus aureus, 120 h; Galleria mellonella larvae infected with MRSA, survival over 5 days", "protocol": "The survival rate of Galleria mellonella was determined according to the literature with some modifications. Larvae of Galleria mellonella (16 per group) were injected with 10 μL of 10^8 CFU/mL MRSA inoculum into the last right proleg. Two hours after infection, larvae were injected with 10 μL of various doses (17.14, 25.71, 37.14, 57.14, and 85.71 mg/kg) of NPDM or tiamulin (used as reference drug) into the last left proleg. The larvae were maintained at 37 °C. Survival of the larvae was recorded daily for 5 days, and the ED50 was calculated."}, "[14]": {"system": "MRSA ATCC 43300", "assay": "Post-antibiotic effect (PAE) assay", "assay_type": "cell-based, Staphylococcus aureus", "protocol": "The PAE was carried out as described in the literature. The MRSA was diluted to 10^6 CFU/mL in MHB. The NPDM or tiamulin was added into the bacteria solution at the final concentrations of 2 × MIC and 4 × MIC. Then all tubes were incubated at 37 °C for 1 h or 2 h. Each of the above inoculums was diluted 1000-fold with pre-warmed MHB to remove the test compounds and placed in a water bath at 37 °C immediately. One hundred microliters of suspension were taken from each culture, diluted 10-fold in sterile saline, and inoculated on MHA plates at 0, 1, 2, 4, and 6 h after inoculation. The total number comprising the colonies was counted after incubation at 37 °C for 20 h. The PAE was calculated referring to published methods. The experiment was performed in triplicate."}, "[15]": {"system": "BRL-3A cells", "assay": "Cytotoxicity, MTT assay", "assay_type": "cell-based", "conditions": "Rattus norvegicus; BRL-3A cells, MTT, 16 h incubation; read-out: 50% inhibition concentration (IC50), cell viability", "protocol": "The cytotoxicity of NPDM was evaluated by the MTT assay as previously reported. Briefly, the medium containing 1 × 10^5 BRL-3A cells per 1 mL was seeded into a 96-well plate at 100 μL per well. After incubation for 48 h, media were replaced with 100 μL of serial dilutions of test compounds and incubated for 16 h. The absorbance (A) was measured at 490 nm by an automatic microplate reader (BIO-TEK Instrument Inc., Winooski, VT, USA). The cell viability was calculated according to Equation (1):(1) Cell viability (%) = (Asimple−Anegative)/(Apositive−Anegative)×100%\nA graph was constructed by plotting the inhibition percentage versus various concentrations of NPDM and tiamulin, from which the IC50 of NPDM or tiamulin was calculated. The measurement was repeated in triplicate."}},
  "data": [
    {"molecule": "C=C[C@]1(C)C[C@@H](OC(=O)CSCCN(CC)CC)[C@]2(C)[C@H](C)CC[C@]3(CCC(=O)[C@H]32)[C@@H](C)[C@@H]1O", "note": "[Tiamulin, reference compound]", "values": [
      {"measurement": "MBC", "setting": "[1]", "value": 0.5, "unit": "µg/mL"},
      {"measurement": "MBC", "setting": "[2]", "value": 2, "unit": "µg/mL"},
      {"measurement": "MBC", "setting": "[3]", "value": 0.5, "unit": "µg/mL"},
      {"measurement": "MBC", "setting": "[4]", "value": 2, "unit": "µg/mL"},
      {"measurement": "Time-kill activity at 2 × MIC", "setting": "[5]; 2 × MIC", "value": "bacteriostatic activity with a rebound growth"},
      {"measurement": "Concentration showing bactericidal activity (≥3 log10 CFU/mL decrease)", "setting": "[5]; after incubation for 24 h", "value": "≥ 4", "unit": "× MIC"},
      {"measurement": "Concentration showing bacteriostatic effect", "setting": "[6]", "value": "≥ 2", "unit": "× MIC"},
      {"measurement": "MIC", "setting": "[7]", "value": 0.5, "unit": "µg/mL"},
      {"measurement": "MIC", "setting": "[8]", "value": 0.5, "unit": "µg/mL"},
      {"measurement": "MIC", "setting": "[9]", "value": 0.5, "unit": "µg/mL"},
      {"measurement": "MIC", "setting": "[10]", "value": 0.5, "unit": "µg/mL"},
      {"measurement": "Reduction of mean MRSA counts in thighs vs untreated group", "setting": "[11]; 24 h", "value": "~ 1.15 log CFU/mL"},
      {"measurement": "Average amount of MRSA inoculum in thighs", "setting": "[11]; 24 h after treatment", "value": "(2.64 ± 1.95) × 10^8 CFU"},
      {"measurement": "Average amount of S. aureus inoculum in thighs", "setting": "[12]; 24 h after treatment", "value": "(2.00 ± 1.21) × 10^8 CFU"},
      {"measurement": "Reduction of mean bacterial counts in thighs vs untreated group", "setting": "[12]; S. aureus, 24 h", "value": "~ 0.68 log CFU/mL"},
      {"measurement": "ED50", "setting": "[13]", "value": 75.7, "unit": "mg/kg"},
      {"measurement": "PAE", "setting": "[14]; 2 × MIC, exposure for 1 h", "value": 1.53, "unit": "h"},
      {"measurement": "PAE", "setting": "[14]; 2 × MIC, exposure for 2 h", "value": 1.65, "unit": "h"},
      {"measurement": "PAE", "setting": "[14]; 4 × MIC, exposure for 1 h", "value": 1.90, "unit": "h"},
      {"measurement": "PAE", "setting": "[14]; 4 × MIC, exposure for 2 h", "value": 2.04, "unit": "h"},
      {"measurement": "IC50", "setting": "[15]", "value": 13.1, "unit": "µg/mL"}
    ]}
  ]
}
